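Five concentrations, 48 hours, 96-well plates. GI50: concentration for 50% inhibition of growth.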 Calls of active or inactive are those of the source. No stated cut-off is given here; in the data, active = GI50 up to about 1.1 µM and inactive = higher.
Key:
Assay in all cases: DTP human tumour cell line panel, 48 h
DMS-273 = test system: DMS-273
NCI-H460 = test system: NCI-H460
LOX IMVI = test system: LOX IMVI
HCT-116 = test system: HCT-116
A498 = test system: A498
HOP-18 = test system: HOP-18
CAKI-1 = test system: CAKI-1
SK-MEL-2 = test system: SK-MEL-2
SNB-78 = test system: SNB-78
786-0 = test system: 786-0
OVCAR-3 = test system: OVCAR-3
SK-MEL-5 = test system: SK-MEL-5
XF498 = test system: XF498
MOLT-4 = test system: MOLT-4
SF-539 = test system: SF-539
SK-OV-3 = test system: SK-OV-3
SF-268 = test system: SF-268
COLO 205 = test system: COLO 205
SK-MEL-28 = test system: SK-MEL-28
A549 = test system: A549
RXF 631 = test system: RXF 631
UACC-62 = test system: UACC-62
M19-MEL = test system: M19-MEL
SNB-19 = test system: SNB-19
NCI-H226 = test system: NCI-H226
SW-620 = test system: SW-620
OVCAR-5 = test system: OVCAR-5
K562 = test system: K562
HOP-92 = test system: HOP-92
SNB-75 = test system: SNB-75
DMS-114 = test system: DMS-114
ACHN = test system: ACHN
SR = test system: SR
SN12C = test system: SN12C
NCI-H23 = test system: NCI-H23
KM-20L2 = test system: KM-20L2
CCRF-CEM = test system: CCRF-CEM
IGROV-1 = test system: IGROV-1
HL-60 = test system: HL-60
UO-31 = test system: UO-31
HCT-15 = test system: HCT-15
M14 = test system: M14
NCI-H522 = test system: NCI-H522
U-251 = test system: U-251
OVCAR-8 = test system: OVCAR-8
HOP-62 = test system: HOP-62
HT-29 = test system: HT-29
LXFL 529 = test system: LXFL 529
RPMI-8226 = test system: RPMI-8226
EKVX = test system: EKVX
OVCAR-4 = test system: OVCAR-4
HCC 2998 = test system: HCC 2998
Malme-3M = test system: Malme-3M
KM12 = test system: KM12
TK-10 = test system: TK-10
UACC-257 = test system: UACC-257
DLD-1 = test system: DLD-1
SF-295 = test system: SF-295
RXF 393 = test system: RXF 393

For `O=[N+]([O-])c1ccc(-c2ccc(/C=N/n3c(S)nnc3-c3ccc(Cl)cc3)o2)cc1`, the GI50 (DMS-273) was 22.9 µM (inactive), the GI50 (NCI-H460) was 21.5 µM (inactive) and the GI50 (LOX IMVI) was 47.5 µM (inactive). The GI50 (HCT-116) was 17.7 µM (inactive), the GI50 (A498) was > 100 µM (inactive) and the GI50 (HOP-18) was > 100 µM (inactive). The GI50 (CAKI-1) was > 39 µM (inactive), the GI50 (SK-MEL-2) was 34.2 µM (inactive) and the GI50 (SNB-78) was > 50.6 µM (inactive). The GI50 (786-0) was 19.2 µM (inactive), the GI50 (OVCAR-3) was 27.9 µM (inactive) and the GI50 (SK-MEL-5) was 20.5 µM (inactive). For the same compound, the GI50 (XF498) was 19.5 µM (inactive), the GI50 (MOLT-4) was 15 µM (inactive) and the GI50 (SF-539) was > 40.2 µM (inactive). For the same compound, the GI50 (SK-OV-3) was > 40.7 µM (inactive), the GI50 (SF-268) was 24.7 µM (inactive) and the GI50 (COLO 205) was 32.1 µM (inactive). For the same compound, the GI50 (SK-MEL-28) was 16.6 µM (inactive), the GI50 (A549) was 28 µM (inactive) and the GI50 (RXF 631) was > 37.4 µM (inactive). The GI50 (UACC-62) was 27.4 µM (inactive), the GI50 (M19-MEL) was 21.1 µM (inactive) and the GI50 (SNB-19) was 23 µM (inactive). The GI50 (NCI-H226) was > 38.6 µM (inactive), the GI50 (SW-620) was 29 µM (inactive) and the GI50 (OVCAR-5) was > 100 µM (inactive). For the same compound, the GI50 (K562) was 19.2 µM (inactive), the GI50 (HOP-92) was > 42 µM (inactive) and the GI50 (SNB-75) was 33.3 µM (inactive). For the same compound, the GI50 (DMS-114) was 95.3 µM (inactive), the GI50 (ACHN) was 26 µM (inactive) and the GI50 (SR) was 22.3 µM (inactive). The GI50 (SN12C) was > 49.2 µM (inactive), the GI50 (NCI-H23) was 27.2 µM (inactive) and the GI50 (KM-20L2) was 28 µM (inactive). For the same compound, the GI50 (CCRF-CEM) was 37.2 µM (inactive), the GI50 (IGROV-1) was > 81.3 µM (inactive) and the GI50 (HL-60) was 51.2 µM (inactive). The GI50 (UO-31) was > 24.2 µM (inactive), the GI50 (HCT-15) was 22.6 µM and the GI50 (M14) was 16.1 µM (inactive). For the same compound, the GI50 (NCI-H522) was 28.6 µM (inactive), the GI50 (U-251) was 21.6 µM (inactive) and the GI50 (OVCAR-8) was > 50 µM (inactive). The GI50 (HOP-62) was 17.5 µM (inactive), the GI50 (HT-29) was 22 µM (inactive) and the GI50 (LXFL 529) was 22.5 µM (inactive). For the same compound, the GI50 (RPMI-8226) was 16.6 µM (inactive), the GI50 (EKVX) was > 100 µM (inactive) and the GI50 (OVCAR-4) was > 38.1 µM (inactive). The GI50 (HCC 2998) was > 72.4 µM (inactive), the GI50 (Malme-3M) was 17.4 µM (inactive) and the GI50 (KM12) was 22.8 µM (inactive). For the same compound, the GI50 (TK-10) was 31 µM (inactive), the GI50 (UACC-257) was > 57.5 µM (inactive) and the GI50 (DLD-1) was 41.6 µM (inactive). The GI50 (SF-295) was 24.1 µM (inactive).
In the case of `CC1(C)CC[C@]2(C(=O)O)CCC3(C)C(=CCC4[C@@]5(C)CC[C@H](OC6OCC(O)C(O)C6OC6OC(CO)C(O)C(O)C6O)C(C)(C)C5CC[C@]43C)C2C1` (stereo partly specified), the GI50 (DMS-273) is reported as 2.06 µM (inactive), the GI50 (NCI-H460) is reported as 2.1 µM (inactive) and the GI50 (LOX IMVI) is reported as 1.95 µM (inactive). The GI50 (HCT-116) was 2.81 µM (inactive), the GI50 (A498) was 2.18 µM (inactive) and the GI50 (HOP-18) was 1.95 µM (inactive). For the same compound, the GI50 (RXF 393) was 1.96 µM (inactive), the GI50 (CAKI-1) was 1.66 µM (inactive) and the GI50 (SNB-78) was 2.76 µM (inactive). For the same compound, the GI50 (786-0) was 2.04 µM (inactive), the GI50 (OVCAR-3) was 2.12 µM (inactive) and the GI50 (SK-MEL-5) was 3.98 µM (inactive). For the same compound, the GI50 (XF498) was 1.94 µM (inactive), the GI50 (MOLT-4) was 2.98 µM (inactive) and the GI50 (SF-539) was 2.22 µM (inactive). For the same compound, the GI50 (SK-OV-3) was 2.22 µM (inactive), the GI50 (SF-268) was 2.4 µM (inactive) and the GI50 (COLO 205) was 1.89 µM (inactive). The GI50 (SK-MEL-28) was 2.33 µM (inactive), the GI50 (A549) was 1.86 µM (inactive) and the GI50 (RXF 631) was 1.74 µM (inactive). For the same compound, the GI50 (UACC-62) was 1.83 µM (inactive), the GI50 (M19-MEL) was 1.83 µM (inactive) and the GI50 (SNB-19) was 1.93 µM (inactive). For the same compound, the GI50 (NCI-H226) was 1.55 µM (inactive), the GI50 (SW-620) was 2.15 µM (inactive) and the GI50 (OVCAR-5) was 2.41 µM (inactive). For the same compound, the GI50 (HOP-92) was 1.84 µM (inactive), the GI50 (SNB-75) was 2.2 µM (inactive) and the GI50 (DMS-114) was 2.04 µM (inactive). The GI50 (ACHN) was 1.94 µM (inactive), the GI50 (SR) was 2.29 µM (inactive) and the GI50 (SN12C) was 1.89 µM (inactive). The GI50 (NCI-H23) was 2.11 µM (inactive), the GI50 (KM-20L2) was 2.02 µM (inactive) and the GI50 (IGROV-1) was 2.67 µM (inactive). For the same compound, the GI50 (UO-31) was 2.16 µM (inactive), the GI50 (HCT-15) was 2.17 µM and the GI50 (M14) was 1.87 µM (inactive). For the same compound, the GI50 (U-251) was 1.93 µM (inactive), the GI50 (OVCAR-8) was 1.95 µM (inactive) and the GI50 (HOP-62) was 2.09 µM (inactive). For the same compound, the GI50 (HT-29) was 2.46 µM (inactive), the GI50 (LXFL 529) was 1.9 µM (inactive) and the GI50 (RPMI-8226) was 2.35 µM (inactive). For the same compound, the GI50 (EKVX) was 1.79 µM (inactive), the GI50 (OVCAR-4) was 1.57 µM (inactive) and the GI50 (HCC 2998) was 1.71 µM (inactive). The GI50 (Malme-3M) was 1.87 µM (inactive), the GI50 (KM12) was 2.24 µM (inactive) and the GI50 (TK-10) was 2.04 µM (inactive). For the same compound, the GI50 (UACC-257) was 2.94 µM (inactive), the GI50 (DLD-1) was 8.61 µM (inactive) and the GI50 (SF-295) was 1.79 µM (inactive).
`O=C(N/C(=C\c1ccc(Br)cc1)c1nc2ccccc2s1)c1ccccc1` was tested, and the GI50 (DMS-273) was 91.6 µM (inactive), the GI50 (NCI-H460) was 85.1 µM (inactive) and the GI50 (LOX IMVI) was 65.2 µM (inactive). For the same compound, the GI50 (HCT-116) was 53 µM (inactive), the GI50 (A498) was 90.8 µM (inactive) and the GI50 (HOP-18) was > 100 µM (inactive). The GI50 (RXF 393) was 43.4 µM (inactive), the GI50 (CAKI-1) was > 100 µM (inactive) and the GI50 (SK-MEL-2) was > 100 µM (inactive). The GI50 (SNB-78) was > 100 µM (inactive), the GI50 (786-0) was > 100 µM (inactive) and the GI50 (OVCAR-3) was > 100 µM (inactive). The GI50 (SK-MEL-5) was 36 µM (inactive), the GI50 (XF498) was > 100 µM (inactive) and the GI50 (MOLT-4) was 29.9 µM (inactive). The GI50 (SF-539) was 88.9 µM (inactive), the GI50 (SK-OV-3) was > 100 µM (inactive) and the GI50 (SF-268) was 36.2 µM (inactive). For the same compound, the GI50 (COLO 205) was > 100 µM (inactive), the GI50 (SK-MEL-28) was > 100 µM (inactive) and the GI50 (A549) was 61.4 µM (inactive). The GI50 (RXF 631) was 87.3 µM (inactive), the GI50 (UACC-62) was 71 µM (inactive) and the GI50 (M19-MEL) was 70.3 µM (inactive). The GI50 (SNB-19) was 47 µM (inactive), the GI50 (NCI-H226) was > 100 µM (inactive) and the GI50 (SW-620) was > 100 µM (inactive). For the same compound, the GI50 (OVCAR-5) was > 100 µM (inactive), the GI50 (K562) was 51.4 µM (inactive) and the GI50 (HOP-92) was 38.2 µM (inactive). The GI50 (SNB-75) was > 100 µM (inactive), the GI50 (DMS-114) was 46.5 µM (inactive) and the GI50 (ACHN) was 76.9 µM (inactive). The GI50 (SN12C) was > 100 µM (inactive), the GI50 (NCI-H23) was 25.5 µM (inactive) and the GI50 (KM-20L2) was > 100 µM (inactive). For the same compound, the GI50 (CCRF-CEM) was 21.5 µM (inactive), the GI50 (IGROV-1) was 75.2 µM (inactive) and the GI50 (UO-31) was 40.3 µM (inactive). The GI50 (HCT-15) was 46.1 µM, the GI50 (M14) was > 100 µM (inactive) and the GI50 (NCI-H522) was 32 µM (inactive). For the same compound, the GI50 (U-251) was 56 µM (inactive), the GI50 (OVCAR-8) was 89.9 µM (inactive) and the GI50 (HT-29) was 69.2 µM (inactive). For the same compound, the GI50 (LXFL 529) was 54.5 µM (inactive), the GI50 (RPMI-8226) was 32.5 µM (inactive) and the GI50 (EKVX) was 37.5 µM (inactive). For the same compound, the GI50 (OVCAR-4) was 30.8 µM (inactive), the GI50 (Malme-3M) was > 100 µM (inactive) and the GI50 (KM12) was > 100 µM (inactive). The GI50 (TK-10) was > 100 µM (inactive), the GI50 (UACC-257) was > 100 µM (inactive) and the GI50 (DLD-1) was 46.9 µM (inactive).
